Data from the supplement of paper PMC10627819.

Columns and labels:
S. pneumoniae D39V [1] = assay: fitness (endpoint OD595 vs no drug) (fraction); higher = more growth
Method in brief: (§1)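 Bacterial growth was followed in 384-well plates seeded at OD595 0.01, with 30 µl per well, or 55 µl for S. pneumoniae, in TSB, LB Lennox or CY at 37 °C. OD595 was read every 30 min for 14 h, and each reading had the first reading subtracted as background. Fitness is the background-corrected optical density at entry into stationary phase divided by the robust mean of the no-drug control wells. This ratio is capped at 1.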

S. aureus Newman [2] = assay: as above
Method in brief: as §1

S. aureus DSM 20231 [3] = assay: as above
Method in brief: as §1

S. pneumoniae D39V [4] = assay: Bliss interaction score (quartile over a dose matrix) (fitness difference); higher = more antagonism (negative = synergy)
Method in brief: (§2)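 Quartiles of the Bliss score were taken over technical, biological and donor/recipient replicates. That score is observed fitness minus the product of the single-drug fitness values, which were inferred from combination data. Fitness itself is OD595 at entry into stationary phase divided by the plate's robust no-drug mean, with a cap at 1.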

B. subtilis 168 [5] = assay: as above
Method in brief: as §2

S. aureus Newman [6] = assay: as above
Method in brief: as §2

S. aureus DSM 20231 [7] = assay: as above
Method in brief: as §2

B. subtilis 168 [8] = assay: fitness (endpoint OD595 vs no drug) (fraction); higher = more growth
Method in brief: as §1
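Throughout, for Bliss interaction score (quartile over a dose matrix): first quartile when negative (synergy) and third quartile when positive (antagonism).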

CO/N=C(\C(=O)N[C@@H]1C(=O)N2C(C(=O)O)=C(COC(C)=O)CS[C@H]12)c1csc(N)n1 [Cefotaxime] + Cn1nnc(-c2ccc(-c3ccc(N4C[C@H](CO)OC4=O)cc3F)cn2)n1 [Tedizolid]
fitness
Conditions	partner 0.03125 µg/mL	partner 0.0625 µg/mL	partner 0.125 µg/mL	partner 0.25 µg/mL	partner 0.5 µg/mL
S. aureus DSM 20231 [3], first compound 0.078 µg/mL	–	0.767	0.718	0.532	–
S. aureus DSM 20231 [3], first compound 0.156 µg/mL	–	0.761	0.608	0.509	–
S. aureus DSM 20231 [3], first compound 0.312 µg/mL	–	0.691	0.602	0.448	–
S. aureus Newman [2], first compound 0.078 µg/mL	–	0.592	0.475	0.217	–
S. aureus Newman [2], first compound 0.156 µg/mL	–	0.455	0.338	0.0974	–
S. aureus Newman [2], first compound 0.312 µg/mL	–	0.232	0.145	0.0726	–
S. aureus Newman [2], first compound 0.625 µg/mL	–	0.0654	0.0082	0.0399	–
S. aureus Newman [2], first compound 1.25 µg/mL	–	0.021	0.0172	0.03	–
S. aureus Newman [2], first compound 2.5 µg/mL	–	0.0122	0.0108	0.0325	–
S. pneumoniae D39V [1], first compound 0.0018 µg/mL	0.968	0.969	0.844	0.482	0.172
S. pneumoniae D39V [1], first compound 0.0035 µg/mL	0.953	0.972	0.847	0.468	0.14
S. pneumoniae D39V [1], first compound 0.007 µg/mL	0.95	0.958	0.812	0.427	0.104

S. aureus DSM 20231 [3], first compound 0.039 µg/mL, one replicate
Conditions	fitness
partner 0.0625 µg/mL	0.806
partner 0.125 µg/mL	0.762
partner 0.25 µg/mL	0.643

Conditions	Bliss interaction score
B. subtilis 168 [5]	0.0923
S. aureus DSM 20231 [7]	0.114
S. aureus Newman [6]	-0.105
S. pneumoniae D39V [4]	0.0955

COc1cccc2c1C(=O)c1c(O)c3c(c(O)c1C2=O)C[C@@](O)(C(=O)CO)C[C@@H]3O[C@H]1C[C@H](N)[C@H](O)[C@H](C)O1 [Doxorubicin] + CCCCCCCCCC(=O)N[C@@H]1[C@H]([C@@H]([C@H](O[C@H]1OC2=C3C=C4C=C2OC5=C(C=C(C=C5)[C@H]([C@H]6C(=O)N[C@@H](C7=C(C(=CC(=C7)O)OC8[C@H]([C@H]([C@@H]([C@H](O8)CO)O)O)O)C9=C(C=CC(=C9)[C@H](C(=O)N6)NC(=O)[C@@H]4NC(=O)[C@@H]1C2=CC(=CC(=C2)OC2=C(C=CC(=C2)[C@H](C(=O)N[C@H](CC2=CC(=C(O3)C=C2)Cl)C(=O)N1)N)O)O)O)C(=O)O)O[C@H]1[C@@H]([C@H]([C@@H]([C@H](O1)CO)O)O)NC(=O)C)Cl)CO)O)O [Teicoplanin]
fitness, main component drawn
Conditions	first compound 0.625 µg/mL	first compound 1.25 µg/mL	first compound 2.5 µg/mL
S. aureus DSM 20231 [3], partner 0.1562 µg/mL	0.889	0.885	0.922
S. aureus DSM 20231 [3], partner 0.3125 µg/mL	0.979	0.965	0.939
S. aureus DSM 20231 [3], partner 0.625 µg/mL	≥ 1	≥ 1	0.978
S. aureus Newman [2], partner 0.1562 µg/mL	0.886	0.809	0.728
S. aureus Newman [2], partner 0.3125 µg/mL	0.872	0.808	0.713
S. aureus Newman [2], partner 0.625 µg/mL	0.841	0.791	0.677

fitness, S. aureus Newman [2], one replicate, main component drawn
Conditions	first compound 0.625 µg/mL	first compound 1.25 µg/mL	first compound 2.5 µg/mL
partner 0.62 µg/mL	0.713	0.736	0.716
partner 1.24 µg/mL	0.666	0.613	0.622
partner 2.48 µg/mL	0.339	0.283	0.237

main component drawn
Conditions	Bliss interaction score
B. subtilis 168 [5]	0.0931
S. aureus DSM 20231 [7]	0.0684
S. aureus Newman [6]	0.0378
S. pneumoniae D39V [4]	0.102

CO/N=C(\C(=O)N[C@@H]1C(=O)N2C(C(=O)O)=C(COC(C)=O)CS[C@H]12)c1csc(N)n1 [Cefotaxime] + CC(=O)NC[C@H]1CN(c2ccc(N3CCOCC3)c(F)c2)C(=O)O1 [Linezolid]
Conditions	fitness
B. subtilis 168 [8], first compound 0.5 µg/mL, partner 0.125 µg/mL	0.298
B. subtilis 168 [8], first compound 0.5 µg/mL, partner 0.25 µg/mL	0.0555
B. subtilis 168 [8], first compound 0.5 µg/mL, partner 0.5 µg/mL	0.0506
B. subtilis 168 [8], first compound 1 µg/mL, partner 0.125 µg/mL	0.218
B. subtilis 168 [8], first compound 1 µg/mL, partner 0.25 µg/mL	0.0513
B. subtilis 168 [8], first compound 1 µg/mL, partner 0.5 µg/mL	0.0306
B. subtilis 168 [8], first compound 2 µg/mL, partner 0.125 µg/mL	0.114
B. subtilis 168 [8], first compound 2 µg/mL, partner 0.25 µg/mL	0.0572
B. subtilis 168 [8], first compound 2 µg/mL, partner 0.5 µg/mL	0.0482
S. aureus DSM 20231 [3], first compound 0.039 µg/mL, partner 0.125 µg/mL	0.737
S. aureus DSM 20231 [3], first compound 0.039 µg/mL, partner 0.25 µg/mL	0.537
S. aureus DSM 20231 [3], first compound 0.039 µg/mL, partner 0.5 µg/mL	0.194
S. aureus DSM 20231 [3], first compound 0.078 µg/mL, partner 0.125 µg/mL	0.689
S. aureus DSM 20231 [3], first compound 0.078 µg/mL, partner 0.25 µg/mL	0.57
S. aureus DSM 20231 [3], first compound 0.078 µg/mL, partner 0.5 µg/mL	0.277
S. aureus DSM 20231 [3], first compound 0.156 µg/mL, partner 0.125 µg/mL	0.745
S. aureus DSM 20231 [3], first compound 0.156 µg/mL, partner 0.25 µg/mL	0.584
S. aureus DSM 20231 [3], first compound 0.156 µg/mL, partner 0.5 µg/mL	0.297
S. pneumoniae D39V [1], first compound 0.0018 µg/mL, partner 0.105 µg/mL	0.913
S. pneumoniae D39V [1], first compound 0.0018 µg/mL, partner 0.2 µg/mL	0.642
S. pneumoniae D39V [1], first compound 0.0018 µg/mL, partner 0.21 µg/mL	0.807
S. pneumoniae D39V [1], first compound 0.0018 µg/mL, partner 0.4 µg/mL	0.633
S. pneumoniae D39V [1], first compound 0.0018 µg/mL, partner 0.42 µg/mL	0.643
S. pneumoniae D39V [1], first compound 0.0018 µg/mL, partner 0.8 µg/mL	0.238
S. pneumoniae D39V [1], first compound 0.0035 µg/mL, partner 0.105 µg/mL	0.905
S. pneumoniae D39V [1], first compound 0.0035 µg/mL, partner 0.2 µg/mL	0.604
S. pneumoniae D39V [1], first compound 0.0035 µg/mL, partner 0.21 µg/mL	0.808
S. pneumoniae D39V [1], first compound 0.0035 µg/mL, partner 0.4 µg/mL	0.615
S. pneumoniae D39V [1], first compound 0.0035 µg/mL, partner 0.42 µg/mL	0.666
S. pneumoniae D39V [1], first compound 0.0035 µg/mL, partner 0.8 µg/mL	0.217
S. pneumoniae D39V [1], first compound 0.007 µg/mL, partner 0.105 µg/mL	0.797
S. pneumoniae D39V [1], first compound 0.007 µg/mL, partner 0.2 µg/mL	0.597
S. pneumoniae D39V [1], first compound 0.007 µg/mL, partner 0.21 µg/mL	0.693
S. pneumoniae D39V [1], first compound 0.007 µg/mL, partner 0.4 µg/mL	0.58
S. pneumoniae D39V [1], first compound 0.007 µg/mL, partner 0.42 µg/mL	0.445
S. pneumoniae D39V [1], first compound 0.007 µg/mL, partner 0.8 µg/mL	0.173

one replicate
Conditions	fitness
B. subtilis 168 [8], first compound 0.00775 µg/mL, partner 0.125 µg/mL	0.688
B. subtilis 168 [8], first compound 0.00775 µg/mL, partner 0.25 µg/mL	0.141
B. subtilis 168 [8], first compound 0.00775 µg/mL, partner 0.5 µg/mL	0.0663
B. subtilis 168 [8], first compound 0.0155 µg/mL, partner 0.125 µg/mL	0.495
B. subtilis 168 [8], first compound 0.0155 µg/mL, partner 0.25 µg/mL	0.0491
B. subtilis 168 [8], first compound 0.0155 µg/mL, partner 0.5 µg/mL	0.0426
B. subtilis 168 [8], first compound 0.031 µg/mL, partner 0.125 µg/mL	0.462
B. subtilis 168 [8], first compound 0.031 µg/mL, partner 0.25 µg/mL	0.0621
B. subtilis 168 [8], first compound 0.031 µg/mL, partner 0.5 µg/mL	0.0534
B. subtilis 168 [8], first compound 0.0625 µg/mL, partner 0.0625 µg/mL	0.553
B. subtilis 168 [8], first compound 0.0625 µg/mL, partner 0.125 µg/mL	0.327
B. subtilis 168 [8], first compound 0.0625 µg/mL, partner 0.25 µg/mL	0.0561
B. subtilis 168 [8], first compound 0.125 µg/mL, partner 0.0625 µg/mL	0.413
B. subtilis 168 [8], first compound 0.125 µg/mL, partner 0.125 µg/mL	0.216
B. subtilis 168 [8], first compound 0.125 µg/mL, partner 0.25 µg/mL	0.0505
B. subtilis 168 [8], first compound 0.25 µg/mL, partner 0.0625 µg/mL	0.308
B. subtilis 168 [8], first compound 0.25 µg/mL, partner 0.125 µg/mL	0.189
B. subtilis 168 [8], first compound 0.25 µg/mL, partner 0.25 µg/mL	0.0533
S. aureus DSM 20231 [3], first compound 0.039 µg/mL, partner 1 µg/mL	0.0567
S. aureus DSM 20231 [3], first compound 0.078 µg/mL, partner 1 µg/mL	0.0664
S. aureus DSM 20231 [3], first compound 0.156 µg/mL, partner 1 µg/mL	0.0626
S. aureus DSM 20231 [3], first compound 0.312 µg/mL, partner 0.125 µg/mL	0.658
S. aureus DSM 20231 [3], first compound 0.312 µg/mL, partner 0.25 µg/mL	0.545
S. aureus DSM 20231 [3], first compound 0.312 µg/mL, partner 0.5 µg/mL	0.342

Conditions	Bliss interaction score
B. subtilis 168 [5]	0.0544
S. aureus DSM 20231 [7]	0.0531
S. aureus Newman [6]	-0.0569
S. pneumoniae D39V [4]	0.157
